# Source: patent publication US8557770B2, “Method of preventing or reducing scarring of human skin” (Pharmecosse Ltd., priority 2000, dated 2013)
# Like-named read-outs stand apart in the source and are kept apart here.
# Legend:
# [1] = test system: dermal fibroblast cell lines; assay: Myofibroblast number in dermal fibroblast cell lines in GFD medium with PPAR agonist; assay type: cell-based, human; details: for Mean percentage reduction in myofibroblast number compared to GFD medium alone: 14 days
# Text: Dermal fibroblast cell lines were derived from 3 patients and seeded individually onto sterile coverslips. […] Medium was refreshed twice weekly and cultures were harvested for immunohistochemical staining for α-smooth muscle actin after 14 days. The number of myofibroblasts was counted and calculated as a percentage of the total cells present, and since the ability of each cell line to differentiate into myofibroblasts varied extensively, the results were normalised as follows. Results are expressed as the mean percentage reduction in myofibroblast number for each treatment as compared to the proportion of myofibroblasts identified in GFD medium alone for that cell line. The error bars represent plus or minus one standard deviation.
# [2] = target: T1, PPARγ (Homo sapiens, UniProt P37231); details: read-out: Published C50, cited from earlier work
# T1 sequence (P37231 1-505): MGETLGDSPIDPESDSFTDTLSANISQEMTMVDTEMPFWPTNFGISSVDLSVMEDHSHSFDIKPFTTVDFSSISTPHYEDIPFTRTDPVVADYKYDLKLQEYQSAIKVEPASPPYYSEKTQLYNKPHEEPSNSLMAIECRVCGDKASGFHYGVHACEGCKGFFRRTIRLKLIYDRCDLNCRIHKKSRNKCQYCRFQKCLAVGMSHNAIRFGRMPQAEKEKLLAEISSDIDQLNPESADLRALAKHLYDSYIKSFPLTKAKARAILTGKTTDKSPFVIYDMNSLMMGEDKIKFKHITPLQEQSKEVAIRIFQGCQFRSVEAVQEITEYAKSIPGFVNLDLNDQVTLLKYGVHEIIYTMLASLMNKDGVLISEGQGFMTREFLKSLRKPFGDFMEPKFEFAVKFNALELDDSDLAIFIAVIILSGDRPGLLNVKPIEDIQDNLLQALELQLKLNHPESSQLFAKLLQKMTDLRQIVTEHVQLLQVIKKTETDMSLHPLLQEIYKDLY
# [3] = test system: PPAR; details: Table 3: other general PPAR agonists; read-out: Published C50; cited from earlier work
# [4] = test system: fibroblast cultures from normal scars; assay: In vitro myofibroblast differentiation assay (α-smooth muscle actin staining), normal scar fibroblasts; assay type: cell-based, human
# Text: (§1) One of the most important cell types in both normal and pathological scar formation is the myofibroblast. These cells, which differentiate from the unwounded tissue cell type (fibroblasts), are responsible for laying down scar tissue. Indeed myofibroblasts remain present in hypertrophic scars up to four years after the original wounding event. An in vitro assay was accordingly developed to identify actives which prevent or reduce myofibroblast formation and thus identify actives which are effective in reducing and/or preventing scar tissue formation.
# (§2) Fibroblast cultures were initiated from normal skin, normal scars, hypertrophic scars (HTS) and burns scars.
# (§3) Each culture was split into seven parts (A to G) and grown in the following different growth media:
# (§4) (A) was grown in normal growth medium (hereinafter referred to as NGM) which consisted of Dulbecco's modified Eagles Medium (DMEM) plus 10% Foetal Calf Serum (FCS);
# (§5) (B) was grown in growth factor depleted medium (hereinafter referred to as GF depleted) which is NGM that is depleted of active polypeptide growth factors including TGFP. It is prepared by treating FCS with a reducing agent in order to attack and cleave the disulphide bonds that determine the conformation and thus the biological activity of the polypeptide growth factors;
# (§6) (D) (D1-D4) were grown in growth factor depleted medium plus 1 ng/ml-100 ng/ml of insulin-like Growth Factor-I) (IGF-I) (hereinafter referred to as GF depleted+IGF-I); (E) (E1-E3) were grown in growth factor depleted medium plus 50 ng/ml-[…] of insulin-like Growth Factor II (IGF-II) (hereinafter referred to as GF depleted+IGFII); (F) (F1F3) were grown in growth factor depleted medium plus 25 ng/ml to 100 ng/ml of basic fibroblast growth factor (bFGF) (hereinafter referred to as GF depleted and bFGF); […]
# (§7) The fibroblasts were grown in these media (which was replenished twice weekly) for fourteen days, fixed and stained immunohistochemically using an antibody specific for α-smooth muscle actin (a marker of myofibroblasts). […] The number of these was counted, as was the total number of cells present, and the proportion of myofibroblasts was then calculated. In this manner, the number of myofibroblasts present in each culture was determined as a percentage of the total number of cells in the culture population.
# (§8) Fibroblast cultures were initiated from normal scars (NS) and hypertrophic scars (HTS). […] The number of myofibroblasts was calculated as a percentage of the total cell population and the results are shown in FIGS. 1 and 2 of the drawings.
# (§9) Fibroblasts cultures were initiated from normal and hypertrophic scars. […] The number of myofibroblasts were counted and calculated as a percentage of the total cells present.
# [5] = test system: fibroblast cultures from hypertrophic scars (HTS); assay: In vitro myofibroblast differentiation assay (α-smooth muscle actin staining), hypertrophic scar fibroblasts; assay type: cell-based, human; details: hypertrophic scar fibroblasts
# Text: as §1, §2, §3, §4, §5, §6, §7, §8, §9
# [6] = test system: fibroblast cultures from burns scars; assay: In vitro myofibroblast differentiation assay (α-smooth muscle actin staining), burns scar fibroblasts; assay type: cell-based, human; details: 14 days
# Text: as §1, §2, §3, §4, §5
# (D) (D1-D4) were grown in growth factor depleted medium plus 1 ng/ml-100 ng/ml of insulin-like Growth Factor-I) (IGF-I) (hereinafter referred to as GF depleted+IGF-I); (E) (E1-E3) were grown in growth factor depleted medium plus 50 ng/ml-[…] of insulin-like Growth Factor II (IGF-II) (hereinafter referred to as GF depleted+IGFII); (F) (F1F3) were grown in growth factor depleted medium plus 25 ng/ml to 100 ng/ml of basic fibroblast growth factor (bFGF) (hereinafter referred to as GF depleted and bFGF);
# (G) (G1-G3) were grown in growth factor depleted medium plus 25 ng/ml to 100 ng/ml of platelet derived growth factor (PDGF) (hereinafter referred to as GF depleted+PDGF).
# The fibroblasts were grown in these media (which was replenished twice weekly) for fourteen days, fixed and stained immunohistochemically using an antibody specific for α-smooth muscle actin (a marker of myofibroblasts). The stain caused α-smooth muscle actin to fluoresce green and accordingly cells that had stained green were identified as myofibroblasts. The number of these was counted, as was the total number of cells present, and the proportion of myofibroblasts was then calculated. In this manner, the number of myofibroblasts present in each culture was determined as a percentage of the total number of cells in the culture population.
# [7] = Table 5: natural PPARγ agonists
# [8] = NGM plus 0.5 ng/ml TGFβ1, 5 days (FIG. 3)
molecule,measurement,setting,value
"CC1(COc2ccc(CC3SC(=O)NC3=O)cc2)CCCCC1 (racemic) [Ciglitazone, (±)-5-[4-(1-methyl-cyclohexylmethoxy)-benzyl]-thiazolidine-2,4-dione]",Mean percentage reduction in myofibroblast number compared to GFD medium alone,[1]; 0.5×10^−7M,79%
same,Mean percentage reduction in myofibroblast number compared to GFD medium alone,[1]; 10^−6M,57%
same,Mean percentage reduction in myofibroblast number compared to GFD medium alone,[1]; 10^−7M,53%
"CCCCCC=CC=CC(O)CCCCCCCC(=O)O (stereo not drawn) [9-HODE, 9-hydroxy-10,12-octadecadienoic acid]",EC50,[2]; [7],~20 µM
"CCCCCC(O)C=CC=CCCCCCCCC(=O)O (stereo not drawn) [13-HODE, 13-hydroxy-9,11-octadecadienoic acid]",EC50,[2]; [7],~20 µM
"CCCCC[C@H](O)/C=C/C=C\C/C=C\C/C=C\CCCC(=O)O [15-HETE, 15-hydroxy-eicosatetraenoic acid]",EC50,[2]; [7],~10 µM
"CCCCCC=CC=C1C(=O)C=C[C@@H]1CC=CCCCC(=O)O [15-deoxy-Δ^12,14 prostaglandin J2]",EC50,[2]; [7],~3 µM
CCCCC/C=C\C/C=C\C/C=C\C/C=C\CCCC(=O)O [Arachidonic acid],EC50,[2]; [7],~20 µM
"CC(C)(Oc1ccc(CCNC(=O)c2ccc(Cl)cc2)cc1)C(=O)O [Bezafibrate, 2-[4-[2-[(4-chlorobenzoyl)-amino]ethyl]phenoxy]-2-methyl propanoic acid]",EC50,[3],60 µM
CCOC(=O)C(C)(C)Oc1ccc(Cl)cc1 [Clofibrate],EC50,"[2]; Table 4: strong agonists for PPAR receptors other than PPARγ, weak action on PPARγ",~500 µM
"CC/C=C\C/C=C\C/C=C\C/C=C\C/C=C\CCCC(=O)O [Eicosapentaenoic acid (EPA), Eicosapentaenoic acid]",EC50,[2]; [7],~20 µM
CCCc1c(OCCCOc2ccc(OCC(=O)O)cc2)ccc(C(C)=O)c1O [L-165041],EC50,[3],5.5 µM
CCCc1c(OCCCCc2nnn[nH]2)ccc(C(C)=O)c1O [LY171883],Numbers of myofibroblasts,[1]; non-specific PPAR agonist,increase the numbers of myofibroblasts
CCCCC/C=C\C/C=C\CCCCCCCC(=O)O [Linoleic acid],EC50,[2]; [7],~20 µM
"O=C[C@@H](O)[C@@H](O)[C@H](O)[C@H](O)COP(=O)(O)O [mannose-6-phosphate, reference compound]",Induction of myofibroblast differentiation in GFD medium,"[4]; GFD plus 100 μM or 10 μM M-6-P, 13 days (FIG. 1)",inhibits the induction of myofibroblast differentiation
same,Induction of myofibroblast differentiation in GFD medium,"[5]; GFD plus 100 μM or 10 μM M-6-P, 13 days (FIG. 2)",inhibits the induction of myofibroblast differentiation
IGF-I: insulin-like Growth Factor-I,Number of myofibroblasts - percentage of total cell population,[6]; GF depleted medium + 1 ng/ml,40.79 percentage of total cell popul
same,Number of myofibroblasts - percentage of total cell population,[6]; GF depleted medium + 10 ng/ml,43.90 percentage of total cell popul
same,Number of myofibroblasts - percentage of total cell population,[6]; GF depleted medium + 50 ng/ml,51.51 percentage of total cell popul
same,Number of myofibroblasts - percentage of total cell population,[6]; GF depleted medium + 100 ng/ml,47.00 percentage of total cell popul
IGF-II: insulin-like Growth Factor II,Number of myofibroblasts - percentage of total cell population,[6]; GF depleted medium + 50 ng/ml,37.93 percentage of total cell popul
same,Number of myofibroblasts - percentage of total cell population,[6]; GF depleted medium + 100 ng/ml,40.26 percentage of total cell popul
same,Number of myofibroblasts - percentage of total cell population,[6]; GF depleted medium + 200 ng/ml,38.52 percentage of total cell popul
PDGF,Number of myofibroblasts - percentage of total cell population,[6]; GF depleted medium + 25 ng/ml,50.95 percentage of total cell popul
same,Number of myofibroblasts - percentage of total cell population,[6]; GF depleted medium + 50 ng/ml,52.84 percentage of total cell popul
same,Number of myofibroblasts - percentage of total cell population,[6]; GF depleted medium + 100 ng/ml,53.35 percentage of total cell popul
"TGFβ1: transforming growth factor beta 1, inducer of myofibroblast differentiation",Induction of myofibroblast differentiation,[4]; [8],induces a rapid (within 5 days) induction of myofibroblast differentiation
same,Induction of myofibroblast differentiation,[5]; [8],induces a rapid (within 5 days) induction of myofibroblast differentiation
bFGF: basic fibroblast growth factor,Number of myofibroblasts - percentage of total cell population,[6]; GF depleted medium + 25 ng/ml,31.82 percentage of total cell popul
same,Number of myofibroblasts - percentage of total cell population,[6]; GF depleted medium + 100 ng/ml,34.21 percentage of total cell popul
